PubChem BioAssay AID1963864 (Molecular Pharmacology Branch, DTP, NCI, 2024)

Tested on: KRAS PDC multicell spheroid viability
Test: Anticancer human tumor 521955-158-R6-J3-PDC patient-derived pancreatic carcinoma cell line growth inhibition [KRAS2]
Conditions: for viability, T/C: stronger effect = lower value
Method in brief: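 Combination screen of spheroid viability in tumor-cell co-cultures with endothelial (HUVEC) and mesenchymal stem cell stroma. Each agent was tested in half-log dilutions, topping at clinical Cmax or at 10 microM without a known Cmax.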

[1] = curve of first compound, second compound 0.1 µM
[2] = curve of first compound, second compound 0.316 µM
[3] = curve of first compound, second compound 1 µM
[4] = curve of first compound, second compound 3.16 µM
[5] = curve of first compound, second compound 10 µM
[6] = second compound 0.1 µM, first compound 0.0316 µM
[7] = second compound 0.1 µM, first compound 0.1 µM
[8] = second compound 0.1 µM, first compound 0.316 µM
[9] = second compound 0.1 µM, first compound 1 µM
[10] = second compound 0.1 µM, first compound 3.16 µM
[11] = second compound 0.1 µM, first compound 10 µM
[12] = second compound 0.316 µM, first compound 0.0316 µM
[13] = second compound 0.316 µM, first compound 0.1 µM
[14] = second compound 0.316 µM, first compound 0.316 µM
[15] = second compound 0.316 µM, first compound 1 µM
[16] = second compound 0.316 µM, first compound 3.16 µM
[17] = second compound 0.316 µM, first compound 10 µM
[18] = second compound 1 µM, first compound 0.0316 µM
[19] = second compound 1 µM, first compound 0.1 µM
[20] = second compound 1 µM, first compound 0.316 µM
[21] = second compound 1 µM, first compound 1 µM
[22] = second compound 1 µM, first compound 3.16 µM
[23] = second compound 1 µM, first compound 10 µM
[24] = second compound 3.16 µM, first compound 0.0316 µM
[25] = second compound 3.16 µM, first compound 0.1 µM
[26] = second compound 3.16 µM, first compound 0.316 µM
[27] = second compound 3.16 µM, first compound 1 µM
[28] = second compound 3.16 µM, first compound 3.16 µM
[29] = second compound 3.16 µM, first compound 10 µM
[30] = second compound 10 µM, first compound 0.0316 µM
[31] = second compound 10 µM, first compound 0.1 µM
[32] = second compound 10 µM, first compound 0.316 µM
[33] = second compound 10 µM, first compound 1 µM
[34] = second compound 10 µM, first compound 3.16 µM
[35] = second compound 10 µM, first compound 10 µM
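Note: drug exposure lasted seven days.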
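Throughout, for viability, T/C: 100% = DMSO vehicle wells and lower means fewer viable cells.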

SMILES: Cn1nccc1Nc1nccc(-c2cc3c(s2)C(C)(C)N(CCN2CCOCC2)C3=O)n1 + COc1cc2nc(C)nc(NC(C)c3cc(N)cc(C(F)(F)F)c3)c2cc1OC1CCOC1
- IC50 [1]: > 10 µM
- IC50 [2]: > 10 µM
- IC50 [3]: > 10 µM
- IC50 [4]: 6.16 µM
- IC50 [5]: < 0.0316 µM
- viability, T/C [6]: 88.5%
- viability, T/C [7]: 111%
- viability, T/C [8]: 96.4%
- viability, T/C [9]: 85.5%
- viability, T/C [10]: 79.6%
- viability, T/C [11]: 64.8%
- viability, T/C [12]: 86.5%
- viability, T/C [13]: 111%
- viability, T/C [14]: 103%
- viability, T/C [15]: 81.9%
- viability, T/C [16]: 71.2%
- viability, T/C [17]: 57.7%
- viability, T/C [18]: 79.1%
- viability, T/C [19]: 111%
- viability, T/C [20]: 99.6%
- viability, T/C [21]: 82.2%
- viability, T/C [22]: 65.4%
- viability, T/C [23]: 56.1%
- viability, T/C [24]: 83.6%
- viability, T/C [25]: 110%
- viability, T/C [26]: 94.8%
- viability, T/C [27]: 73.7%
- viability, T/C [28]: 55.9%
- viability, T/C [29]: 45.8%
- viability, T/C [30]: 26.8%
- viability, T/C [31]: 30%
- viability, T/C [32]: 16%
- viability, T/C [33]: 14.1%
- viability, T/C [34]: 6.82%
- viability, T/C [35]: 3.23%

SMILES: CC1OCC2(CCN(c3cnc(Sc4ccnc(N)c4Cl)c(N)n3)CC2)C1N (stereo not given)
- viability, T/C (compound 0.0316 µM): 97.6% [middle of 4 runs]
- viability, T/C (compound 0.316 µM): 86.6% [middle of 19 runs]
- IC50 (compound alone, run of 08/19/2021): > 10 µM
- IC50 (compound alone, run of 08/26/2021): > 10 µM
- IC50 (compound alone, run of 09/02/2021): > 10 µM
- IC50 (curve of compound): > 10 µM

SMILES: CC1OCC2(CCN(c3cnc(Sc4ccnc(N)c4Cl)c(N)n3)CC2)C1N (stereo not given) + CNCc1ccccc1-c1csc(C(C)Nc2nc(C)nc3cc(OC)c(OC)cc23)c1
- IC50 [1]: > 10 µM
- IC50 [2]: > 10 µM
- IC50 [3]: > 10 µM
- IC50 [4]: < 0.0316 µM
- IC50 [5]: < 0.0316 µM
- viability, T/C [6]: 83.1%
- viability, T/C [7]: 73.2%
- viability, T/C [8]: 73.5%
- viability, T/C [9]: 81.8%
- viability, T/C [10]: 105%
- viability, T/C [11]: 100%
- viability, T/C [12]: 83.7%
- viability, T/C [13]: 80.3%
- viability, T/C [14]: 70%
- viability, T/C [15]: 72.7%
- viability, T/C [16]: 92.2%
- viability, T/C [17]: 105%
- viability, T/C [18]: 67.3%
- viability, T/C [19]: 67%
- viability, T/C [20]: 66.5%
- viability, T/C [21]: 72%
- viability, T/C [22]: 90%
- viability, T/C [23]: 67.3%
- viability, T/C [24]: 0.42%
- viability, T/C [25]: 0.24%
- viability, T/C [26]: 0.25%
- viability, T/C [27]: 0.33%
- viability, T/C [28]: 1.07%
- viability, T/C [29]: 0.41%
- viability, T/C [30]: 0.23%
- viability, T/C [31]: 0.26%
- viability, T/C [32]: 0.26%
- viability, T/C [33]: 0.17%
- viability, T/C [34]: 0.22%
- viability, T/C [35]: 0.27%

SMILES: COc1cc2nccc(Oc3ccc(NC(=O)C4(C(=O)Nc5ccc(F)cc5)CC4)cc3)c2cc1OC + CNCc1ccccc1-c1csc(C(C)Nc2nc(C)nc3cc(OC)c(OC)cc23)c1
- IC50 [1]: > 10 µM
- IC50 [2]: > 10 µM
- IC50 [3]: 2.16 µM
- IC50 [4]: < 0.0316 µM
- IC50 [5]: < 0.0316 µM
- viability, T/C [6]: 91.1%
- viability, T/C [7]: 102%
- viability, T/C [8]: 101%
- viability, T/C [9]: 108%
- viability, T/C [10]: 125%
- viability, T/C [11]: 133%
- viability, T/C [12]: 94.3%
- viability, T/C [13]: 92.9%
- viability, T/C [14]: 90.2%
- viability, T/C [15]: 87.7%
- viability, T/C [16]: 119%
- viability, T/C [17]: 109%
- viability, T/C [18]: 80.1%
- viability, T/C [19]: 75.1%
- viability, T/C [20]: 79.3%
- viability, T/C [21]: 83.9%
- viability, T/C [22]: 32.2%
- viability, T/C [23]: 38.4%
- viability, T/C [24]: 0.94%
- viability, T/C [25]: 0.35%
- viability, T/C [26]: 0.42%
- viability, T/C [27]: 0.24%
- viability, T/C [28]: 0.24%
- viability, T/C [29]: 0.24%
- viability, T/C [30]: 13.4%
- viability, T/C [31]: 0.23%
- viability, T/C [32]: 0.2%
- viability, T/C [33]: 0.21%
- viability, T/C [34]: 0.2%
- viability, T/C [35]: 0.28%

SMILES: COc1cc2nccc(Oc3ccc(NC(=O)C4(C(=O)Nc5ccc(F)cc5)CC4)cc3)c2cc1OC + CC1OCC2(CCN(c3cnc(Sc4ccnc(N)c4Cl)c(N)n3)CC2)C1N
- IC50 [1]: > 10 µM
- IC50 [2]: > 10 µM
- IC50 [3]: > 10 µM
- IC50 [4]: > 10 µM
- IC50 [5]: > 10 µM
- viability, T/C [6]: 93.7%
- viability, T/C [7]: 93.7%
- viability, T/C [8]: 89.3%
- viability, T/C [9]: 102%
- viability, T/C [10]: 105%
- viability, T/C [11]: 102%
- viability, T/C [12]: 97.5%
- viability, T/C [13]: 91%
- viability, T/C [14]: 89.3%
- viability, T/C [15]: 105%
- viability, T/C [16]: 108%
- viability, T/C [17]: 86.5%
- viability, T/C [18]: 116%
- viability, T/C [19]: 96.8%
- viability, T/C [20]: 108%
- viability, T/C [21]: 112%
- viability, T/C [22]: 90.7%
- viability, T/C [23]: 90%
- viability, T/C [24]: 115%
- viability, T/C [25]: 122%
- viability, T/C [26]: 118%
- viability, T/C [27]: 119%
- viability, T/C [28]: 103%
- viability, T/C [29]: 81.6%
- viability, T/C [30]: 112%
- viability, T/C [31]: 121%
- viability, T/C [32]: 111%
- viability, T/C [33]: 119%
- viability, T/C [34]: 80.6%
- viability, T/C [35]: 67.7%

SMILES: CC1COCCN1c1cc(-c2ccnn2C)c2ccnc(-c3ccn[nH]3)c2n1 (stereo not given)
- viability, T/C (compound 0.01 µM): 99.8% [middle of 5 runs]
- viability, T/C (compound 0.0316 µM): 90.3% [middle of 5 runs]
- viability, T/C (compound 0.1 µM): 83.4% [middle of 5 runs]
- viability, T/C (compound 0.316 µM): 78.2% [middle of 5 runs]
- viability, T/C (compound 1 µM): 84.7% [middle of 5 runs]
- viability, T/C (compound 3.16 µM): 86.6% [middle of 5 runs]
- IC50 (curve of compound): > 3.16 µM

SMILES: CC(C)n1nc(-c2ccc3oc(N)nc3c2)c2c(N)ncnc21 + C=CC(=O)N1CCN(c2nc(=O)n(-c3c(C)ccnc3C(C)C)c3nc(-c4c(O)cccc4F)c(F)cc23)C(C)C1
- IC50 [1]: > 0.1 µM
- IC50 [2]: > 0.1 µM
- IC50 [3]: > 0.1 µM
- IC50 [4]: > 0.1 µM
- IC50 [5]: 0.0848 µM
- viability, T/C (second compound 0.1 µM, first compound 0.000316 µM): 96.2%
- viability, T/C (second compound 0.1 µM, first compound 0.001 µM): 90.9%
- viability, T/C (second compound 0.1 µM, first compound 0.00316 µM): 75.6%
- viability, T/C (second compound 0.1 µM, first compound 0.01 µM): 67.9%
- viability, T/C [6]: 62.5%
- viability, T/C [7]: 55.4%
- viability, T/C (second compound 0.316 µM, first compound 0.000316 µM): 91.7%
- viability, T/C (second compound 0.316 µM, first compound 0.001 µM): 97.7%
- viability, T/C (second compound 0.316 µM, first compound 0.00316 µM): 92.8%
- viability, T/C (second compound 0.316 µM, first compound 0.01 µM): 70.8%
- viability, T/C [12]: 66.9%
- viability, T/C [13]: 53.3%
- viability, T/C (second compound 1 µM, first compound 0.000316 µM): 97.8%
- viability, T/C (second compound 1 µM, first compound 0.001 µM): 90.6%
- viability, T/C (second compound 1 µM, first compound 0.00316 µM): 77.3%
- viability, T/C (second compound 1 µM, first compound 0.01 µM): 71.9%
- viability, T/C [18]: 67.4%
- viability, T/C [19]: 53.5%
- viability, T/C (second compound 3.16 µM, first compound 0.000316 µM): 93%
- viability, T/C (second compound 3.16 µM, first compound 0.001 µM): 93%
- viability, T/C (second compound 3.16 µM, first compound 0.00316 µM): 81.4%
- viability, T/C (second compound 3.16 µM, first compound 0.01 µM): 70.2%
- viability, T/C [24]: 66.7%
- viability, T/C [25]: 56.4%
- viability, T/C (second compound 10 µM, first compound 0.000316 µM): 99%
- viability, T/C (second compound 10 µM, first compound 0.001 µM): 89.9%
- viability, T/C (second compound 10 µM, first compound 0.00316 µM): 74.6%
- viability, T/C (second compound 10 µM, first compound 0.01 µM): 77.2%
- viability, T/C [30]: 59.8%
- viability, T/C [31]: 47.5%

SMILES: COc1cc(OC)cc(N(CCNC(C)C)c2ccc3ncc(-c4cnn(C)c4)nc3c2)c1
- viability, T/C (compound 0.0316 µM): 96% [middle of 4 runs]
- viability, T/C (compound 0.1 µM): 96.3% [middle of 4 runs]
- viability, T/C (compound 0.316 µM): 96.1% [middle of 4 runs]
- viability, T/C (compound 1 µM): 94% [middle of 4 runs]
- viability, T/C (compound 3.16 µM): 110% [middle of 4 runs]
- viability, T/C (compound 10 µM): 7.96% [middle of 4 runs]
- IC50 (curve of compound): 5.96 µM [middle of 4 runs]
